Experimental data reported in patent US20070128217A1 (priority 2003, published 2007).

Columns and labels:
[1] = system: control sera (pooled serum of ten healthy LUMC hospital workers; commercial negative donor pooled serum from the Dutch bloodbank); type: binding, human; design: Binding of Control serum LUMC to linear peptides / Binding of Control serum Blood-bank to linear peptides / Binding of Control serum LUMC to looped peptides / Binding of Control Serum Blood-Bank to Looped peptides / Binding of Control serum LUMC to linear peptides of the protein M of SARS-CoV Urbani / Binding of Control serum Blood-bank to linear peptides of the protein M of SARS-CoV Urbani / Binding of Control serum LUMC to looped peptides of the protein M of SARS-CoV Urbani / Binding of Control Serum Blood-Bank to Looped peptides of the protein M of SARS-CoV Urbani: unit not given here
[2] = system: recombinant human anti-SARS-CoV antibody 03-018; type: binding; design: Binding of antibody 03-018 to linear peptides of the N protein of SARS-CoV Urbani / Binding of antibody 03-018 to looped/cyclic peptides of the N protein of SARS-CoV Urbani: unit not given here
[3] = system: antibodies in sera from SARS patients (sera 1a, 1b, 2, 6, 37, 62, London, SARS-yellow, SARS-green); type: binding, human; design: Binding of serum 6 to linear peptides of protein X1 of SARS-CoV Urbani / Binding of serum 37 to linear peptides of protein X1 of SARS-CoV Urbani / Binding of serum 6 to looped/cyclic peptide (PEPSCAN-ELISA) / Binding of serum 37 to looped/cyclic peptide (PEPSCAN-ELISA) / Binding of serum 37 to looped/cyclic peptides of protein X1 of SARS-CoV Urbani / Binding of serum 6 to linear peptides of protein X2 / Binding of serum 37 to linear peptides of protein X2 / Binding of serum 37 to looped/cyclic peptides of protein X2 of SARS-CoV Urbani / Binding of serum 6 to linear peptides of protein M of SARS-CoV Urbani / Binding of serum 37 to linear peptides of protein M of SARS-CoV Urbani / Binding of serum 6 to looped/cyclic peptides of protein M of SARS-CoV Urbani / Binding of serum 37 to looped/cyclic peptides of protein M of SARS-CoV Urbani / Binding of serum 6 to linear peptides of protein X3 of SARS-CoV Urbani / Binding of serum 37 to linear peptides of protein X3 of SARS-CoV Urbani / Binding of serum 37 to looped/cyclic peptides of protein X3 of SARS-CoV Urbani / Binding of serum 6 to linear peptides of protein X4 of SARS-CoV Urbani / Binding of serum 37 to linear peptides of protein X4 of SARS-CoV Urbani / Binding of serum 37 to looped/cyclic peptides of protein X4 of SARS-CoV Urbani / Binding of serum 6 to linear peptides of protein X5 of SARS-CoV Urbani / Binding of serum 37 to linear peptides of protein X5 of SARS-CoV Urbani / Binding of serum 37 to looped/cyclic peptides of protein X5 of SARS-CoV Urbani / Binding of serum 6 to linear peptides of protein N of SARS-CoV Urbani / Binding of serum 37 to linear peptides of protein N of SARS-CoV Urbani / Binding of serum 6 to linear peptide (PEPSCAN-ELISA) / Binding of serum 1a to looped/cyclic peptides of protein N of SARS-CoV Urbani / Binding of serum 1b to looped/cyclic peptides of protein N of SARS-CoV Urbani / Binding of serum 2 to looped/cyclic peptides of protein N of SARS-CoV Urbani / Binding of serum 6 to looped/cyclic peptides of protein N of SARS-CoV Urbani / Binding of serum 37 to looped/cyclic peptides of protein N of SARS-CoV Urbani / Binding of serum 62 to looped/cyclic peptides of protein N of SARS-CoV Urbani / Binding of serum London to looped/cyclic peptides of protein N of SARS-CoV Urbani / Binding of serum SARS-green to looped/cyclic peptides of protein N of SARS-CoV Urbani: unit not given here
[4] = system: rabbit serum obtained by immunizing a rabbit with the SARS-CoV strain Frankfurt 1; type: binding; design: Binding of a rabbit serum to linear peptides / Binding of a rabbit serum to looped peptides / Rabbit serum linear peptides / Rabbit serum looped peptides / Binding of a rabbit serum to linear peptides of protein N of SARS-CoV Urbani (Rabbit serum linear peptides) / Binding of a rabbit serum to looped/cyclic peptides of protein N of SARS-CoV Urbani (Rabbit serum looped peptides): unit not given here

| Sequence | Binding of antibody 03-018 to linear peptides of the N protein of SARS-CoV Urbani [2] | Binding of antibody 03-018 to looped/cyclic peptides of the N protein of SARS-CoV Urbani [2] | Binding of serum 1a to linear peptides of protein N of SARS-CoV Urbani [3] | Binding of serum 1a to looped/cyclic peptides of protein N of SARS-CoV Urbani [3] | Binding of serum 1b to linear peptides of protein N of SARS-CoV Urbani [3] | Binding of serum 1b to looped/cyclic peptides of protein N of SARS-CoV Urbani [3] | Binding of serum 2 to linear peptides of protein N of SARS-CoV Urbani [3] | Binding of serum 2 to looped/cyclic peptides of protein N of SARS-CoV Urbani [3] | Binding of serum 6 to linear peptides of protein N of SARS-CoV Urbani [3] | Binding of serum 6 to looped/cyclic peptides of protein N of SARS-CoV Urbani [3] | Binding of serum 37 to linear peptides of protein N of SARS-CoV Urbani [3] | Binding of serum 37 to looped/cyclic peptides of protein N of SARS-CoV Urbani [3] | Binding of serum 62 to linear peptides of protein N of SARS-CoV Urbani [3] | Binding of serum 62 to looped/cyclic peptides of protein N of SARS-CoV Urbani [3] | Binding of serum London to linear peptides of protein N of SARS-CoV Urbani [3] | Binding of serum London to looped/cyclic peptides of protein N of SARS-CoV Urbani [3] | Binding of serum SARS-green to linear peptides of protein N of SARS-CoV Urbani [3] | Binding of serum SARS-green to looped/cyclic peptides of protein N of SARS-CoV Urbani [3] | Binding of serum SARS-yellow to linear peptides of protein N of SARS-CoV Urbani [3] | Binding of serum SARS-yellow to looped/cyclic peptides of protein N of SARS-CoV Urbani [3] | other results |
| --- | --- | --- | --- | --- | --- | --- | --- | --- | --- | --- | --- | --- | --- | --- | --- | --- | --- | --- | --- | --- | --- |
| TPSGTWLTYHGAIKL | 0.1 | 0.2 | 0.2 | 0.4 | 0.1 | 0.2 | 0.2 | 0.4 | 0.2 | 0.2 | 0.7 | 0.8 | 0.6 | 0.8 | 0.7 | 0.5 | 0.3 | 0.3 | 0.5 | 0.4 | Control Serum Blood-Bank Looped peptides [1]: 0.7; Control serum Blood-bank linear peptides [1]: 0.8; Control serum LUMC linear peptides [1]: 0.6; Control serum LUMC looped peptides [1]: 0.5; Binding of a rabbit serum to linear peptides of protein N of SARS-CoV Urbani (Rabbit serum linear peptides) [4]: 0.1; Binding of a rabbit serum to looped/cyclic peptides of protein N of SARS-CoV Urbani (Rabbit serum looped peptides) [4]: 0.4 |
| TYHGAIKLDDKDPQF | 0.1 | 0.1 | 0.3 | 0.2 | 0.1 | 0.1 | 0.1 | 0.2 | 0.2 | 0.1 | 0.8 | 0.3 | 1.1 | 0.2 | 0.6 | 0.3 | 0.4 | 0.0 | 0.7 | 0.2 | Control Serum Blood-Bank Looped peptides [1]: 0.4; Control serum Blood-bank linear peptides [1]: 0.8; Control serum LUMC linear peptides [1]: 0.7; Control serum LUMC looped peptides [1]: 0.4; Binding of a rabbit serum to linear peptides of protein N of SARS-CoV Urbani (Rabbit serum linear peptides) [4]: 0.1; Binding of a rabbit serum to looped/cyclic peptides of protein N of SARS-CoV Urbani (Rabbit serum looped peptides) [4]: 0.2 |
| VATEGALNTPKDHIG | 0.2 | 0.2 | 0.3 | 0.3 | 0.1 | 0.2 | 0.2 | 0.3 | 0.2 | 0.2 | 0.7 | 0.4 | 1.1 | 0.3 | 0.7 | 0.3 | 0.5 | 0.2 | 0.6 | 0.2 | Binding of Control Serum Blood-Bank to Looped peptides [1]: 0.5; Binding of Control serum Blood-bank to linear peptides [1]: 0.9; Binding of Control serum LUMC to linear peptides [1]: 0.9; Binding of Control serum LUMC to looped peptides [1]: 0.5; Binding of a rabbit serum to linear peptides of protein N of SARS-CoV Urbani (Rabbit serum linear peptides) [4]: 0.2; Binding of a rabbit serum to looped/cyclic peptides of protein N of SARS-CoV Urbani (Rabbit serum looped peptides) [4]: 0.0 |
| VILLNKHIDAYKTFP | 0.1 | 0.2 | 0.2 | 0.3 | 0.1 | 0.1 | 0.2 | 0.3 | 0.2 | 0.2 | 0.7 | 0.5 | 0.7 | 0.4 | 0.5 | 0.4 | 0.4 | 0.2 | 0.5 | 0.3 | Control Serum Blood-Bank Looped peptides [1]: 0.5; Control serum Blood-bank linear peptides [1]: 0.7; Control serum LUMC linear peptides [1]: 0.8; Control serum LUMC looped peptides [1]: 0.4; Binding of a rabbit serum to linear peptides of protein N of SARS-CoV Urbani (Rabbit serum linear peptides) [4]: 0.1; Binding of a rabbit serum to looped/cyclic peptides of protein N of SARS-CoV Urbani (Rabbit serum looped peptides) [4]: 0.4 |
